# Experimental data reported in patent US9376433B2, “(AZA-)isoquinolinone derivatives” (MERCK PATENT GMBH, priority 2012, dated 2016).
# Key:
# TNKS1 = biological target: T1, TNKS1 (Homo sapiens, UniProt O95271); assay: TNKS1 activity ELISA (autoparsylation assay); format: biochemical; details: GST-tagged Tnks-1 (1023-1327 aa), luminescence
# T1 construct: GST-tagged Tnks-1 (1023-1327 aa, prepared in-house); made in house
# Procedure: Description of the TNKS1 and TNKS2 ELISA Assay
# Biochemical activity testing of TNKS 1 and 2: activity ELISA (Autoparsylation assay)
# For analysis of autoparsylation activity of TNKS 1 and 2 an activity ELISA iss performed: In the first step GST tagged TNKS is captured on a Glutathione coated plate. Then the activity assay with biotinylated NAD is performed in the absence/presence of the compounds. During the enzymatic reaction GST tagged TNKS transfers biotinylated ADP-ribose to itself from biotinylated NAD as co-substrate. For the detection streptavidin-HRP conjugate is added that binds to the biotinylated TNKS and is thereby captured to the plates. The amount of biotinylated resp. autoparsylated TNKS is detected with a luminescence substrate for HRP. The level of the luminescence signal correlats directly with the amount of autoparsylated TNKS and therefore with activity of TNKS.
# The acitivity ELISA is performed in 384 well Glutathione coated microtiter plates (Express capture Glutathione coated plate, Biocat, Heidelberg, Germany). The plates are pre-equilibrated with PBS. Then the plates are incubated with 50 μl 20 ng/well GST-tagged Tnks-1 (1023-1327 aa, prepared in-house), respectively GST-tagged Tnks-2 (873-1166 aa, prepared in-house) in assay buffer (50 mM HEPES, 4 mM Mg-chloride, 0.05% Pluronic F-68, 2 mM DTT, pH 7.7) overnight at 4° C. The plates are washed 3 times with PBS-Tween-20. The wells are blocked by incubation at room temperature for 20 minutes with 50 μl blocking buffer (PBS, 0.05% Tween-20, 0.5% BSA). Afterwards the plates are washed 3 times with PBS-Tween-20. The enzymatic reaction is performed in 50 μl reaction solution (50 mM HEPES, 4 mM Mg-chloride, 0.05% Pluronic F-68, 1.4 mM DTT, 0.5% DMSO, pH 7.7) with10 μM bio-NAD (Biolog, Life science Inst., Bremen, Germany) as co-substrate in the absence or presence of the test compound (10 dilution concentrations) for 1 hour at 30° C. The reaction is stopped by 3 times washing with PBS-Tween-20. For the detection 50 μl of 20 ng/μl Streptavidin, HRP conjugate (MoBiTec, Göttingen, Germany) in PBS/0.05% Tween-20/0.01% BSA are added and the plates are incubated for 30 minutes at room temperature. After three times washing with PBS-Tween-20 50 μl of SuperSignal ELISA Femto Maximum sensitivity substrate solution (ThermoFisherScientific (Pierce), Bonn, Germany) are added. Following a 1 minute incubation at room temperature luminescence signals are measured with an Envision multimode reader (Perkin Elmer LAS Germany GmbH) at 700 nm. The full value used is the inhibitor-free reaction. The pharmacological zero value used is XAV-939 (Tocris) in a final concentration of 5 μM. The inhibitory values (IC50) are determined using either the program Symyx Assay Explorer® or Condosseo® from GeneData.
# PARP-1 = biological target: T2, PARP-1 (Homo sapiens, UniProt P09874); assay: PARP-1 autoparsylation assay (HTRF); format: biochemical; details: His-tagged Parp-1, human recombinant
# T2 construct: purchased Enzo Life Sciences GmbH, Lorrach, Germany
# T2 sequence (P09874 whole entry): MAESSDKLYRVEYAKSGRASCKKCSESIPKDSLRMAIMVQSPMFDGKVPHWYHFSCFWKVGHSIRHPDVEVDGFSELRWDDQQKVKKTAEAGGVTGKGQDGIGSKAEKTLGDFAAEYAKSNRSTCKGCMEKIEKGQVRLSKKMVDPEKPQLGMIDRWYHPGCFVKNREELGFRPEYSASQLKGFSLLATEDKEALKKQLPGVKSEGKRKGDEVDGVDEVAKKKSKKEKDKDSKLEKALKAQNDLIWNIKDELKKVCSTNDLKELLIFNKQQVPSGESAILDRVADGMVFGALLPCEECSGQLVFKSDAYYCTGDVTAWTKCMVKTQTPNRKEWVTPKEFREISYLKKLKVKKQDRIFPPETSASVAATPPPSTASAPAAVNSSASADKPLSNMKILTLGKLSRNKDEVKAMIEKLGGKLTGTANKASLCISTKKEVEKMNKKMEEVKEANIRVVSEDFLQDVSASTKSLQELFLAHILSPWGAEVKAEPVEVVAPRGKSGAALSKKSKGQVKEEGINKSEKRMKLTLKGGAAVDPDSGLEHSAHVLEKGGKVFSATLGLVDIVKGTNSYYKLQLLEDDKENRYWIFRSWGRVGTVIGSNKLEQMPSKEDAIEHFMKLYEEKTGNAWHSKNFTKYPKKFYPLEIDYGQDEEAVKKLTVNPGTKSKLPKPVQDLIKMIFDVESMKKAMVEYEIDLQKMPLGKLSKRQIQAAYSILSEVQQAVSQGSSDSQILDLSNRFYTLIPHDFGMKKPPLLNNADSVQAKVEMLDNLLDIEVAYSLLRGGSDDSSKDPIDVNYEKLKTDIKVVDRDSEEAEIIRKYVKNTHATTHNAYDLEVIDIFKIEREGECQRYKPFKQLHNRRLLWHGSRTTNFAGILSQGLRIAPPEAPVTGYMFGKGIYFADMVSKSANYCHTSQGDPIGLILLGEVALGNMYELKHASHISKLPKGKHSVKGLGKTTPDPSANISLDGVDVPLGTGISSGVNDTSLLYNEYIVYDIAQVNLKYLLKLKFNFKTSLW
# Excerpt: Description of the PARP1 Assay
# Biochemical Activity Testing of PARP-1: Autoparsylation Assay
# The autoparsylation assay is run in two steps: the enzymatic reaction in which His-tagged Parp-1 transfers biotinylated ADP-ribose/ADP-ribose to itself from biotinylated NAD/NAD as co-substrate and the detection reaction where a time resolved FRET between cryptate labelled anti-His antibody bound to the His tag of the enzyme and Xlent® labelled-streptavidin bound the biotin-parsylation residue is analysed. The autoparsylation activity is detectable directly via the increase in HTRF signal.
# The autoparsylation assay is performed as 384-well HTRF® (Cisbio, Codolet, France) assay format in Greiner low volume nb 384-well microtiter plates. 35 nM His-tagged Parp-1 (human, recombinant, Enzo Life Sciences GmbH, Lorrach, Germany) and a mixture of 125 nM bio-NAD (Biolog, Life science Inst., Bremen, Germany) and 800 nM NAD as co-substrate are incubated in a total volume of 6 μl (100 mM Tris/HCl, 4 mM Mg-chloride, 0.01% IGEPAL® CA630, 1 mM DTT , 0.5% DMSO, pH 8, 13 ng/μl activated DNA (BPS Bioscience, San Diego, US)) in the absence or presence of the test compound (10 dilution concentrations) for 150 min at 23° C. The reaction is stopped by the addition of 4 μl of the Stop/detection solution (70 nM SA-Xlent® (Cisbio, Codolet, France), 2.5 nM Anti-His-K® (Eu-labelled anti-His, Cisbio, Codolet, France) in 50 mM HEPES, 400 mM KF, 0.1% BSA, 20 mM EDTA, pH 7.0). After 1 h incubation at room temperature the HTRF iss measured with an Envision multimode reader (Perkin Elmer LAS Germany GmbH) at excitation wavelength 340 nm (laser mode) and emission wavelengths 615 nm and 665 nm. The ratio of the emission signals is determined. The full value used is the inhibitor-free reaction. The pharmacological zero value used is Olaparib (LClabs, Woburn, US) in a final concentration of 1 μM. The inhibitory values (IC50) are determined using either the program Symyx Assay Explorer® or Condosseo® from GeneData.
# T1 sequence (O95271 1023-1327): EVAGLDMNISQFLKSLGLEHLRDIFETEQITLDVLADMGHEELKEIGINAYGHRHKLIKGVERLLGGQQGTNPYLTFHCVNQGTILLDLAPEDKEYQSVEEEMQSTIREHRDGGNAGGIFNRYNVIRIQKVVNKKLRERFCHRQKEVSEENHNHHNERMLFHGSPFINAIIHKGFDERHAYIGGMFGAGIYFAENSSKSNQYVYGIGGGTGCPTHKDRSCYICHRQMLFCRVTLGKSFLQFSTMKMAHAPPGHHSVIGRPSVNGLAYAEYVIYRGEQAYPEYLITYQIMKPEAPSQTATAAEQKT
Structure (SMILES),IC50 (TNKS1),IC50 (PARP-1)
"CC(C)(O)c1ccc(-c2cc3c(F)cc(F)cc3c(=O)[nH]2)cc1 [Compound A33, 5,7-difluoro-3-[4-(1-hydroxy-1-methyl-ethyl)-phenyl]-2H-isoquinolin-1-one]",< 300 nM,< 0.3 µM
"C=C(C)c1ccc(-c2cc3ccc(F)cc3c(=O)[nH]2)cc1 [Compound A17, 7-fluoro-3-(4-isopropenyl-phenyl)-2H-isoquinolin-1-one]",< 300 nM,0.3 to 3 µM
"Cc1ccc(-c2cc3c(C)cccc3c(=O)[nH]2)cc1 [Compound A29, 5-methyl-3-(p-tolyl)-2H-isoquinolin-1-one]",< 300 nM,< 0.3 µM
"CC(C)(O)c1ccc(-c2cc3ccc(F)cc3c(=O)[nH]2)cc1 [Compound A6, 7-fluoro-3-[4-(1-hydroxy-1-methyl-ethyl)-phenyl]-2H-isoquinolin-1-one]",< 300 nM,0.3 to 3 µM
"CC(C)(OCCO)c1ccc(-c2cc3ccc(F)cc3c(=O)[nH]2)cc1 [Compound A16, 7-fluoro-3-{4-[1-(2-hydroxy-ethoxy)-1-methyl-ethyl]-phenyl}-2H-isoquinolin-1-one]",< 300 nM,0.3 to 3 µM
"COC(C)(C)c1ccc(-c2cc3ccccc3c(=O)[nH]2)cc1 [Compound A15, 3-[4-(1-methoxy-1-methyl-ethyl)-phenyl]-2H-isoquinolin-1-one]",< 300 nM,0.3 to 3 µM
"Cc1ccc(-c2cc3cc(F)ccc3c(=O)[nH]2)cc1 [Compound A10, 6-fluoro-3-p-tolyl-2H-isoquinolin-1-one]",< 300 nM,3 to 50 µM
"CC(C)(O)c1ccc(-c2cc3cc(F)ccc3c(=O)[nH]2)cc1 [Compound A5, 6-fluoro-3-[4-(1-hydroxy-1-methyl-ethyl)-phenyl]-2H-isoquinolin-1-one]",< 300 nM,0.3 to 3 µM
"Cc1ccc(-c2cc3c(F)cccc3c(=O)[nH]2)cc1 [Compound A12, 5-fluoro-3-p-tolyl-2H-isoquinolin-1-one]",< 300 nM,0.3 to 3 µM
"CC(C)(N)c1ccc(-c2cc3ccc(F)cc3c(=O)[nH]2)cc1 [Compound A20, 3-[4-(1-amino-1-methyl-ethyl)phenyl]-7-fluoro-2H-isoquinolin-1-one]",< 300 nM,< 0.3 µM
"CC(C)(O)c1ccc(-c2cc3ccccc3c(=O)[nH]2)cc1 [Compound A3, 3-[4-(1-hydroxy-1-methyl-ethyl)-phenyl]-2H-isoquinolin-1-one]",< 300 nM,0.3 to 3 µM
"CC(C)(O)c1ccc(-c2cc3ccncc3c(=O)[nH]2)cc1 [Compound A24, 3-[4-(1-hydroxy-1-methyl-ethyl)phenyl]-2H-2,7-naphthyridin-1-one]",< 300 nM,3 to 50 µM
"CC(C)(O)c1ccc(-c2cc3c(F)cccc3c(=O)[nH]2)cc1 [Compound A28, 5-fluoro-3-[4-(1-hydroxy-1-methyl-ethyl)phenyl]-2H-isoquinolin-1-one]",< 300 nM,0.3 to 3 µM
"Cn1cc(-c2ccc(-c3cc4ccncc4c(=O)[nH]3)cc2)cn1 [Compound A14, 3-[4-(1-Methyl-1H-pyrazol-4-yl)-phenyl]-2H-[2,7]naphthyridin-1-one]",< 300 nM,3 to 50 µM
"Cn1cc(-c2ccc(-c3cc4ccc(F)cc4c(=O)[nH]3)cc2)cn1 [Compound A18, 7-fluoro-3-[4-(1-methyl-1H-pyrazol-4-yl)-phenyl]-2H-isoquinolin-1-one]",< 300 nM,0.3 to 3 µM
"CC(C)(O)c1ccc(-c2cc3cnccc3c(=O)[nH]2)cc1 [Compound A23, 3-[4-(1-hydroxy-1-methyl-ethyl)phenyl]-2H-2,6-naphthyridin-1-one]",< 300 nM,3 to 50 µM
"Cc1ccc(-c2cc3ccc(F)cc3c(=O)[nH]2)cc1 [Compound A9, 7-fluoro-3-p-tolyl-2H-isoquinolin-1-one]",< 300 nM,< 0.3 µM
"CC(C)(O)c1ccc(-c2cc3cccc(F)c3c(=O)[nH]2)cc1 [Compound A27, 8-fluoro-3-[4-(1-hydroxy-1-methyl-ethyl)phenyl]-2H-isoquinolin-1-one]",< 300 nM,0.3 to 3 µM
"Cc1ccc(-c2cc3cccc(F)c3c(=O)[nH]2)cc1 [Compound A11, 8-fluoro-3-p-tolyl-2H-isoquinolin-1-one]",< 300 nM,0.3 to 3 µM
